# Data published in US20110130425A1, “Use of H3 Histaminergic Agonists for the Treatment of Addiction to Drugs of Abuse” (priority 2009, published 2011).
# Entries after “also recorded” stand apart in the source; their conditions may differ.
# Experiments:
# [1] = test system: relapse into cocaine seeking; assay: Relapse phase: rehabilitation test, relapse induced by a single dose of cocaine; type: in vivo, rat; settings: L-histidine 500 mg/kg i.p. one hour before; cocaine 0.5 mg/kg; vs saline; rats
# Excerpt: III. Relapse Phase: The relapse phase is studied by using a rehabilitation test. In this phase, the desire of the rats for the drug is again induced by the administration of a single dose of drug. At this instant, the rat again feels the desire to obtain the drug, and so it again begins to press on the lever to obtain the drug, but the drug is not available to the animal.
# The behavior of the rats was also studied during the relapse phase, after the animals had gone through the extinction phase. In the extinction phase, the animals received no reward (dose of cocaine) when they pressed the lever. After a minimum of six extinction sessions, lasting 2 hours each session, carried out on consecutive days, the lever-pressing behavior of the rats diminished at least 20 times in comparison to the start of the extinction sessions.
# When the number of times that the rats pressed the lever decreased, the animals were subjected to 4 hour rehabilitation sessions (i.e., relapse sessions). These rehabilitation sessions consisted initially of extinction sessions of 3 hours, followed by the automatic release, by an injection, of a saline solution or different doses of cocaine. During the fourth hour, the behavior of the animals was studied in regard to the number of times that they pressed the lever after the administration of the different doses of cocaine (0 mg/kg, 0.5 mg/kg and 2 mg/kg). The number of times that the lever was pressed increased in proportion to the dose of cocaine administered (cocaine at 0.5 mg/kg or 2 mg/kg administered intravenously, or saline in controls) (FIG. 8). However, this increase in the number of times that the animals pressed the lever was not rewarded with the administration of more cocaine. The number of times that the rats pressed the lever was indicative of the rat's need to find the drug. Even so, the pressing of the lever was not rewarded with more cocaine, which differentiates this stage from that corresponding to self-administration. […]
# dopamine release = assay: Nicotine stimulation of dopamine release in striatal miniprisms; type: cell-based, Sprague-Dawley rat; settings: 0.5 mM L-histidine preincubation; 100 nM nicotine, 15 mM K+; rat striatal miniprisms; vs controls
# Method: One male Sprague-Dawley rat obtained from Charles-River weighing 200-250 g is used. The rat brain is rapidly removed and placed in ice-cold oxygen-saturated (O2/CO2:95%/5%) Krebs bicarbonate buffer (124 mM NaCl, 0.8 mM KCl, 1.25 mM NaH2PO4, 1.2 mM KH2PO4, 0.67 mM MgSO4, 2.6 mM CaCl2, 10 mM glucose and 27.5 mM NaHCO3, pH 7.4). The striata is dissected and cut using a Mcllwain™ Mechanical Tissue Copper (Stoelting Co., Wood Dale, Ill.) into miniprisms of 0.3 mm/side. The microprims are transferred to ice-cold Krebs buffer, gently centrifuged, and the buffer changed to remove damaged tissue and cellular debris.
# Brain miniprisms are distributed into 24 flat-bottom Eppendorf tubes and preincubated for 2 hours in 0.25 mL Krebs buffer at 37° C. using an Eppendorf Thermomixer® under a O2/CO2 atmosphere. Then the medium is replaced with fresh Krebs buffer at 37° C. with or without 0.5 mM L-histidine prepared in the same buffer. This concentration of L-histidine is similar to that reached in plasma of L-histidine-treated humans (Block et al., 1967). […]
# All samples are then cooled down on ice and quickly centrifuged at 1000×g for 1 minute to separate buffer from tissue. […] An automatic autosampler Merck-Hitachi L-7200 and an automated fraction collector Gilson FC203B automatically recover internal standard dopamine peaks when UV detected into scintillation vials. […]
# alcohol relapse behavior = assay: Alcohol Deprivation Effect (ADE) paradigm; type: in vivo, rat; settings: L-histidine; rats
# Method: The effects of a H3 histaminergic ligand, such as L-histidine, are tested in our well-established model of relapse-like drinking behavior.
# Alcohol Deprivation Effect (ADE) paradigm: All rats are given continuous access to tap water and to 5%, 10% and 20% (v/v) ethanol solutions in their home cages. Spillage and evaporation is minimized by the use of self-made bottles. All drinking solutions are renewed weekly and the positions of the four bottles are changed to avoid location preferences. After eight weeks of continuous access, ethanol solutions are repeatedly withdrawn for 3-21 days (deprivation phases) every four weeks until the rats become alcohol-dependent (as measured by a sucrose and quinine tests). The effects of a H3 histaminergic ligand are then tested on the expression of the alcohol deprivation effect (=relapse behavior). A second ADE study is initiated 3 months later in order to study the persistence of treatment efficacy.
# Past pharmacological studies in home cage drinking models were hampered by the fact that measurements were performed at 24 hour intervals. Thus the exact temporal profile of drug treatment could not be assessed under home cage drinking conditions and sometimes pharmacological effects became masked by the use of measurements every 24 hours. This problem has now been solved in our lab by the use of a fully-automated drinkometer system. […]
smiles,measurement,setting,value
N[C@@H](Cc1c[nH]cn1)C(=O)O [L-histidine],lever pressing after relapse induced by a single dose of cocaine,[1],caused a decrease in the pressing on the lever; also recorded: diminished significantly
same,dopamine release caused by nicotine stimulation,dopamine release,less dopamine release
same,relapse into alcohol drinking after alcohol deprivation (alcohol deprivation effect),alcohol relapse behavior,decreases relapse
